Results as given in the NIST ThermoML archive (doi:10.1016/j.jct.2018.10.015).

Assay: xn = mol fraction of the nth substance listed
Settings: 101.3 kPa, Liquid; for viscosity: Concentric cylinders viscometry; for mass density: Vibrating tube method

CCCCn1cc[n+](C)c1C.O=S(=O)([N-]S(=O)(=O)C(F)(F)F)C(F)(F)F + COC(=O)OC
Settings | mass density [kg/m3] | viscosity [mPa·s]
293.15 K, x1 = 0.0976 | 1176 | 1.828
293.15 K, x1 = 0.1935 | 1242.1 | 3.518
293.15 K, x1 = 0.299 | 1291.6 | 6.864
293.15 K, x1 = 0.4011 | 1325.8 | 12.11
293.15 K, x1 = 0.4954 | 1350.1 | 19.5
293.15 K, x1 = 0.5974 | 1371 | 31.06
293.15 K, x1 = 0.6988 | 1387.8 | 47.37
293.15 K, x1 = 0.7987 | 1401.5 | 68.9
293.15 K, x1 = 0.9 | 1413.2 | 97.5
293.15 K, x1 = 1 | 1423.1 | 133.6
298.15 K, x1 = 0.0976 | 1170.1 | 1.686
298.15 K, x1 = 0.1935 | 1236.6 | 3.172
298.15 K, x1 = 0.299 | 1286.4 | 6.035
298.15 K, x1 = 0.4011 | 1320.8 | 10.38
298.15 K, x1 = 0.4954 | 1345.2 | 16.34
298.15 K, x1 = 0.5974 | 1366.2 | 25.45
298.15 K, x1 = 0.6988 | 1383 | 38.01
298.15 K, x1 = 0.7987 | 1396.8 | 54.23
298.15 K, x1 = 0.9 | 1408.5 | 75.54
298.15 K, x1 = 1 | 1418.5 | 101.82
303.15 K, x1 = 0.0976 | 1164.2 | 1.561
303.15 K, x1 = 0.1935 | 1231.1 | 2.876
303.15 K, x1 = 0.299 | 1281.2 | 5.352
303.15 K, x1 = 0.4011 | 1315.7 | 8.997
303.15 K, x1 = 0.4954 | 1340.2 | 13.88
303.15 K, x1 = 0.5974 | 1361.4 | 21.16
303.15 K, x1 = 0.6988 | 1378.3 | 31.01
303.15 K, x1 = 0.7987 | 1392.1 | 43.5
303.15 K, x1 = 0.9 | 1403.9 | 59.63
303.15 K, x1 = 1 | 1413.9 | 79.23
308.15 K, x1 = 0.0976 | 1158.2 | 1.445
308.15 K, x1 = 0.1935 | 1225.6 | 2.623
308.15 K, x1 = 0.299 | 1275.9 | 4.784
308.15 K, x1 = 0.4011 | 1310.7 | 7.873
308.15 K, x1 = 0.4954 | 1335.3 | 11.92
308.15 K, x1 = 0.5974 | 1356.5 | 17.83
308.15 K, x1 = 0.6988 | 1373.5 | 25.68
308.15 K, x1 = 0.7987 | 1387.4 | 35.46
308.15 K, x1 = 0.9 | 1399.2 | 47.91
308.15 K, x1 = 1 | 1409.3 | 62.74
313.15 K, x1 = 0.0976 | 1152.2 | 1.343
313.15 K, x1 = 0.1935 | 1220.1 | 2.405
313.15 K, x1 = 0.299 | 1270.7 | 4.306
313.15 K, x1 = 0.4011 | 1305.6 | 6.95
313.15 K, x1 = 0.4954 | 1330.4 | 10.34
313.15 K, x1 = 0.5974 | 1351.7 | 15.2
313.15 K, x1 = 0.6988 | 1368.8 | 21.55
313.15 K, x1 = 0.7987 | 1382.7 | 29.34
313.15 K, x1 = 0.9 | 1394.6 | 39.06
313.15 K, x1 = 1 | 1404.8 | 50.56
318.15 K, x1 = 0.0976 | 1146.2 | 1.25
318.15 K, x1 = 0.1935 | 1214.5 | 2.214
318.15 K, x1 = 0.299 | 1265.5 | 3.9
318.15 K, x1 = 0.4011 | 1300.6 | 6.184
318.15 K, x1 = 0.4954 | 1325.5 | 9.06
318.15 K, x1 = 0.5974 | 1346.9 | 13.1
318.15 K, x1 = 0.6988 | 1364 | 18.3
318.15 K, x1 = 0.7987 | 1378.1 | 24.58
318.15 K, x1 = 0.9 | 1390 | 32.32
318.15 K, x1 = 1 | 1400.2 | 41.38
323.15 K, x1 = 0.0976 | 1140.2 | 1.165
323.15 K, x1 = 0.1935 | 1209 | 2.046
323.15 K, x1 = 0.299 | 1260.3 | 3.553
323.15 K, x1 = 0.4011 | 1295.6 | 5.543
323.15 K, x1 = 0.4954 | 1320.6 | 8
323.15 K, x1 = 0.5974 | 1342.1 | 11.4
323.15 K, x1 = 0.6988 | 1359.3 | 15.71
323.15 K, x1 = 0.7987 | 1373.4 | 20.85
323.15 K, x1 = 0.9 | 1385.4 | 27.09
323.15 K, x1 = 1 | 1395.6 | 34.32
328.15 K, x1 = 0.0976 | 1133.9 | 1.091
328.15 K, x1 = 0.1935 | 1203.6 | 1.904
328.15 K, x1 = 0.299 | 1255.1 | 3.258
328.15 K, x1 = 0.4011 | 1290.5 | 5.017
328.15 K, x1 = 0.4954 | 1315.6 | 7.129
328.15 K, x1 = 0.5974 | 1337.2 | 10.03
328.15 K, x1 = 0.6988 | 1354.6 | 13.64
328.15 K, x1 = 0.7987 | 1368.7 | 17.91
328.15 K, x1 = 0.9 | 1380.8 | 23.04
328.15 K, x1 = 1 | 1391 | 28.91
